# In patent US20040142851A1, “Hydrazinopeptoids and their uses for treating cancers” (priority 2001, published 2004):
# Peptide text beside a SMILES is read from it. * marks the point of attachment. Cbz = O=C(OCc1ccccc1)*
# Key:
# XL2 cells [1] = test: FACS analysis, % of cells blocked in G2/M in XL2 cell cultures; assay type: cell-based, Xenopus
# Procedure: The molecules synthesized were tested in vitro on the proteolytic activities described of the proteasome, then in vivo on Xenopus (XL2) cell cultures. Knowledge of the cell cycle of XL2 cells has made it possible to carry out synchronization experiments and also to evaluate the duration of each of the phases of the cycle. […]
# [2] = target: purified proteasome (chymotrypsin activity) (Homo sapiens, UniProt P28074); test: Inhibition of the chymotrypsin catalytic activity of the purified proteasome; assay type: biochemical; conditions: 2 mM compound
# From the text: In vitro analyses of the inhibitory potentialities of the Hydrazinoazapeptoids synthesized vis-à-vis the enzyme activities of the proteasome.
# The inhibitory potentialities of the hydrazinoazapeptoids have been quantified with respect to the chymotrypsin enzyme activities of the purified proteasome. The results are expressed as percentages of activity inhibition.
# Measurement of the inhibitory properties of the synthesized compounds on the chymotrypsin catalytic activity of the purified proteasome.
# XL2 cells [3] = test: Fluorescence microscopy analysis of the stages of mitosis; assay type: cell-based, Xenopus; conditions: for % Anaphase + Telophase / % Metaphase / % Prophase: 50 cells blocked in mitosis
# Procedure: The molecules synthesized were tested in vitro on the proteolytic activities described of the proteasome, then in vivo on Xenopus (XL2) cell cultures. Knowledge of the cell cycle of XL2 cells has made it possible to carry out synchronization experiments and also to evaluate the duration of each of the phases of the cycle.
# Observation of the nuclear content makes it possible to determine the different stages of the mitosis. The following results were obtained using 50 cells blocked in mitosis. The first 7 inhibitors were studied using fluorescence microscopy.
# [4] = system: mouse leukaemia cell cultures; test: Antiproliferative effect on mouse leukaemia cell cultures; assay type: cell-based
# From the text: We have analyzed the effect of the retro compounds on mouse leukaemia cell cultures and confirm that among these products, three compounds have an antiproliferative effect. This effect has been observed on two other cell types, rat hepatocytes and a human breast cancer line.
compound,measurement,setting,value
"CC(C)C[C@@H](C=O)NC(=O)[C@H](CC(C)C)NC(=O)[C@H](CC(C)C)NC(=O)OCc1ccccc1 [MG132, benzyloxycarbonyl leucinyl-leucinyl-leucinal, reference compound] (Cbz-Leu-Leu-Leu-aldehyde)",% of cells blocked in G2/M,"XL2 cells [1]; 50 μM, 7 h",60.6%
"CC(C)CN(CC(=O)NN(CC(C)C)C(=O)C(F)(F)F)NC(=O)OC(C)(C)C [P1, Boc-N^αhLeu-azaLeu-CF3]",inhibition at 2000 µM,[2],29%
same,% of cells blocked in G2/M,"XL2 cells [1]; 145 μM, 7 h",9.2%
same,% Anaphase + Telophase,XL2 cells [3],51%
same,% Metaphase,XL2 cells [3],35%
same,% Prophase,XL2 cells [3],14%
same,melting point,,105 °C
COC(=O)N(CC(C)C)NC(=O)CN(CC(C)C)NC(=O)OC(C)(C)C [P2],inhibition at 2000 µM,[2],47%
same,% of cells blocked in G2/M,"XL2 cells [1]; 160 μM, 7 h",6.7%
same,% Anaphase + Telophase,XL2 cells [3],46%
same,% Metaphase,XL2 cells [3],36%
same,% Prophase,XL2 cells [3],18%
"CCCCN(NC(=O)C(=O)OCC)C(=O)CN(CC(C)C)NC(=O)OC(C)(C)C [P3, Boc-N^αhLeu-N-azaNorleu-CO2Et]",inhibition at 2000 µM,[2],31%
same,% of cells blocked in G2/M,"XL2 cells [1]; 144 μM, 4 h",14.9%
same,% of cells blocked in G2/M,"XL2 cells [1]; 144 μM, 6 h",15.2%
same,% of cells blocked in G2/M,"XL2 cells [1]; 144 μM, 8 h",13.8%
same,% Anaphase + Telophase,XL2 cells [3],53%
same,% Metaphase,XL2 cells [3],26%
same,% Prophase,XL2 cells [3],21%
same,melting point,,105 °C
"CCCCN(NC(=O)C(F)(F)F)C(=O)CN(CC(C)C)NC(=O)OC(C)(C)C [P4, Boc-N^αhLeu-N-azaNorleu-CF3]",inhibition at 2000 µM,[2],29%
same,% of cells blocked in G2/M,"XL2 cells [1]; 145 μM, 4 h",16.5%
same,% of cells blocked in G2/M,"XL2 cells [1]; 145 μM, 8 h",13.4%
same,% Anaphase + Telophase,XL2 cells [3],42%
same,% Metaphase,XL2 cells [3],42%
same,% Prophase,XL2 cells [3],16%
"CCOC(=O)C(=O)N(CC(C)C)NC(=O)CN(CC(C)C)NC(=O)OC(C)(C)C [P5, Boc-N^αhLeu-azaLeu-CO2Et]",inhibition at 2000 µM,[2],32%
same,% of cells blocked in G2/M,"XL2 cells [1]; 144 μM, 7 h",5.2%
same,% Anaphase + Telophase,XL2 cells [3],37%
same,% Metaphase,XL2 cells [3],45%
same,% Prophase,XL2 cells [3],18%
same,melting point,,147 °C
CC(C)CN(CC(=O)N(CC(N)=O)CC(C)C)NC(=O)OC(C)(C)C [P6],inhibition at 2000 µM,[2],38%
same,% of cells blocked in G2/M,"XL2 cells [1]; 167 μM, 7 h",9.2%
same,inhibitory selectivity during the different stages of mitosis (in words),XL2 cells [3],mostly blocks cells at the end of mitosis
same,% Anaphase + Telophase,XL2 cells [3],58%
same,% Metaphase,XL2 cells [3],24%
same,% Prophase,XL2 cells [3],18%
"CC(C)CN(CC(=O)N(CC(C)C)NC(N)=O)NC(=O)OC(C)(C)C [P7, Boc-N^αhLeu-N-azaLeu-CONH2]",inhibition at 2000 µM,[2],23%
same,% of cells blocked in G2/M,"XL2 cells [1]; 167 μM, 7 h",12.3%
same,inhibitory selectivity during the different stages of mitosis (in words),XL2 cells [3],much less selective
same,% Anaphase + Telophase,XL2 cells [3],38%
same,% Metaphase,XL2 cells [3],35%
same,% Prophase,XL2 cells [3],27%
same,melting point,,138 °C
"CC(C)CN(CC(=O)N(CC(C)C)NC(=O)C(F)(F)F)NC(=O)OC(C)(C)C [P8, Boc-N^αhLeu-N-azaLeu-CF3]",inhibition at 2000 µM,[2],28%
same,% of cells blocked in G2/M,"XL2 cells [1]; 146 μM, 7 h",19.1%
same,melting point,,110 °C
"CCOC(=O)C(=O)NN(CC(C)C)C(=O)CN(CC(C)C)NC(=O)OC(C)(C)C [P9, Boc-N^αhLeu-N-azaLeu-CO2Et]",inhibition at 2000 µM,[2],30%
same,% of cells blocked in G2/M,"XL2 cells [1]; 144 μM, 7 h",14.1%
CC(C)CN(CC(=O)N(CC(C)C)NC(=O)CC#N)NC(=O)OC(C)(C)C [P12],inhibition at 2000 µM,[2],48%
same,% of cells blocked in G2/M,"XL2 cells [1]; 156 μM, 7 h",23.5%
"CC(C)CN(CC(=O)N(CC(C)C)NC=O)NC(=O)OC(C)(C)C [P13, Boc-N^αhLeu-N-azaLeu-H]",inhibition at 2000 µM,[2],35%
same,% of cells blocked in G2/M,"XL2 cells [1]; 174 μM, 7 h",20.8%
same,melting point,,124 °C
"CC(C)CN(CC(=O)N(CC(C)C)NC(=O)CBr)NC(=O)OC(C)(C)C [P14, Boc-N^αhLeu-N-azaLeu-CH2Br]",% inhibition of chymotrypsin activity of the purified proteasome,[2],71%
same,inhibition at 2000 µM,[2],70%
same,% of cells blocked in G2/M,"XL2 cells [1]; 2 μM, 0.5 h",48.2%
same,% of cells blocked in G2/M,"XL2 cells [1]; 4 μM, 0.5 h",44.8%
same,% of cells blocked in G2/M,"XL2 cells [1]; 11 μM, 0.5 h",47.4%
same,% of cells blocked in G2/M,"XL2 cells [1]; 22 μM, 0.5 h",46.2%
same,% of cells blocked in G2/M,"XL2 cells [1]; 45 μM, 0.5 h",48.3%
same,% of cells blocked in G2/M,"XL2 cells [1]; 91 μM, 0.5 h",50.2%
same,% of cells blocked in G2/M,"XL2 cells [1]; 137 μM, 1 h",50.2%
same,concentration in the medium necessary to obtain a blockage in mitosis,XL2 cells [1]; XL2 cell cultures,2 µM
same,"percentage of cells blocked in mitosis, compared with ALLN (in words)",XL2 cells [1]; XL2 cell cultures,activity comparable to that of the ALLN
"CC(C)CN(CC(=O)N(CC(C)C)/N=C/c1cccc(B(O)O)c1)NC(=O)OC(C)(C)C [P15, Boc-N^αhLeu-N-azaLeu-CH-Ph-m-B(OH)2]",inhibition at 2000 µM,[2],38%
same,% of cells blocked in G2/M,"XL2 cells [1]; 133 μM, 7 h",35.8%
"CC(C)CN(CC(=O)N(CC(C)C)/N=C/c1ccccc1B(O)O)NC(=O)OC(C)(C)C [P15o, Boc-N^αhLeu-N-azaLeu-CH-Ph-o-B(OH)2]",melting point,,159 °C
"CC(C)CN(CC(=O)N(CC(C)C)/N=C/c1ccc(B(O)O)cc1)NC(=O)OC(C)(C)C [P15p, Boc-N^αhLeu-N-azaLeu-CH-Ph-p-B(OH)2]",melting point,,186 °C
CCSCC(=O)NN(CC(C)C)C(=O)CN(CC(C)C)NC(=O)OC(C)(C)C [P16],inhibition at 2000 µM,[2],34%
same,% of cells blocked in G2/M,"XL2 cells [1]; 143 μM, 7 h",24.2%
"CC(C)CN(CC(=O)N(Cc1ccccc1)NC(=O)CBr)NC(=O)OC(C)(C)C [P17, Boc-N^αhLeu-N-azaPhe-COCH2Br]",% inhibition of chymotrypsin activity of the purified proteasome,[2],80%
same,inhibition at 2000 µM,[2],70%
same,% of cells blocked in G2/M,"XL2 cells [1]; 21 μM, 0.5 h",46.8%
same,% of cells blocked in G2/M,"XL2 cells [1]; 42 μM, 0.5 h",47.3%
same,% of cells blocked in G2/M,"XL2 cells [1]; 85 μM, 0.5 h",50.9%
same,% of cells blocked in G2/M,"XL2 cells [1]; 127 μM, 0.5 h",42.8%
same,% of cells blocked in G2/M,"XL2 cells [1]; 127 μM, 1 h",41.7%
same,% of cells blocked in G2/M,"XL2 cells [1]; 127 μM, 2 h",38.3%
same,"percentage of cells blocked in mitosis, compared with ALLN (in words)",XL2 cells [1]; XL2 cell cultures,activity comparable to that of the ALLN
same,melting point,,135 °C
BrH2COC—N^αhPhe-N-azaLeu-Z [PR2],effect on proliferation (in words),[4],inhibit proliferation
same,effect on viability of the cells / cell death (in words),[4],cause cell death
BrH2COC—N^αhPhe-azaLeu-Z [PR3],effect on proliferation (in words),[4],inhibit proliferation
same,effect on viability of the cells / cell death (in words),[4],cause cell death
F3COC—N^αhLeu-N-azaLeu-Z [PR5],effect on proliferation (in words),[4],inhibit proliferation
same,effect on viability of the cells / cell death (in words),[4],cause cell death
PhCO—N^αhLeu-N-azaLeu-CF3 [P11],% inhibition of chymotrypsin activity of the purified proteasome,[2],40%
same,% of cells blocked in G2/M,"XL2 cells [1]; 144 μM, 7 h",17.2%
PhCO—N^αhLeu-N-azaLeu-CO2Et [P10],% inhibition of chymotrypsin activity of the purified proteasome,[2],42%
same,% of cells blocked in G2/M,"XL2 cells [1]; 143 μM, 7 h",23.1%
Z-N^αhLeu-N-azaLys-COCH2Br [P22],effect on proliferation (in words),[4],inhibit proliferation
same,effect on viability of the cells / cell death (in words),[4],cause cell death
Z-N^αhLeu-N-azaPhe-CH2Br [P21],effect on proliferation (in words),[4],proliferation inhibitors
same,effect on viability of the cells / cell death (in words),[4],do not affect the viability of the cells
m-B(OH)2-Ph-HC═N^αhPhe-N-azaLeu-Z [PR8],effect on proliferation (in words),[4],inhibit proliferation
same,effect on viability of the cells / cell death (in words),[4],cause cell death
o-B(OH)2-Ph-HC═N^αhLeu-N-azaLeu-Z [PR6],effect on proliferation (in words),[4],proliferation inhibitors
same,effect on viability of the cells / cell death (in words),[4],do not affect the viability of the cells
o-B(OH)2-Ph-HC═N^αhPhe-N-azaLeu-Z [PR7],effect on proliferation (in words),[4],proliferation inhibitors
same,effect on viability of the cells / cell death (in words),[4],do not affect the viability of the cells
